Columns and labels:
Format in all cases: cell-based
A549 NSCLC cells [1] = assay: MTT cytotoxicity assay
Description: (§1) H2122, A549 and H358 non-small cell lung cancer (NSCLC) cells were purchased from ATCC and cultivated with Roswell Park Memorial Institute (RPMI) 1640 medium supplemented with 10% fetal bovine serum (Gibco, Big Cabin, Oklahoma, ME, USA), 100 units/mL penicillin and 100 μg/mL streptomycin (Gibco, Big Cabin, Oklahoma, ME, USA). All the cells were cultivated at 37° C. in a humidified atmosphere of 5% CO2.
(§2) Cells were seeded in a 96-well microplate with 3000, 4000 or 5000 cells/well confluence and cultured overnight for cell adhesion. Different concentrations of compound K017-0105 were added to the microplates, and the microplates were incubated for 24, 48 or 72 hours (h). Each concentration of compound K017-0105 was repeated in triplicate. 10 μL 3-(4,5-Dimethylthiazol-2-yl)-2,5-Diphenyltetrazolium Bromide (MTT) (5 mg/mL) solution was added to every well. After incubating for 4 h, 100 μL dimethyl sulfoxide (DMSO) was added to each well. After shaking for 15 minutes, the absorbance of the microplate was measured at 570 nm (absorbance) and 650 nm (reference) by a microplate reader (Tecan, Morrisville, N.C., USA).

H2122 NSCLC cells [2] = assay: MTT cytotoxicity assay
Description: as §1, §2

H358 NSCLC cells [3] = assay: MTT cytotoxicity assay
Description: as §1, §2

[4] = system: normal CCD-19Lu lung cells; assay: MTT cytotoxicity assay; settings: 72 h
Description: as §2

p-CRAF, p-Akt and p-ERK = assay: Western blot analysis of KRAS downstream signaling; settings: compared with untreated control cells
Description: H2122, H358 and A549 NSCLC cells were rinsed with phosphate-buffered saline (PBS) and lysed in radioimmunoprecipitation assay (RIPA) lysis buffer (Beyotime, China) supplemented with a protease and phosphatase inhibitor cocktail (Thermo Scientific 78440, USA) once for 30 minutes. Cell lysates were centrifuged at 12,000 g for 10 minutes at 4° C. The supernatant was collected, and the protein concentration was calculated with a Bio-Rad detergent compatible (DC™) protein assay kit (Bio-Rad, Philadelphia, Pa., USA). 30 μg protein lysates were loaded and separated by 10% sodium dodecyl sulfate (SDS)-polyacrylamide gel electrophoresis and transferred to a nitrocellulose (NC) membrane. The membranes were incubated with the primary antibody (1:2000) and then with a fluorescence-conjugated secondary antibody (1:10000). Glyceraldehyde 3-phosphate dehydrogenase (GAPDH) was used as the loading control for normalization. The signal of the membranes was scanned with a LI-COR Odyssey Scanner (Belfast, Me., USA).

GTP-bound KRAS = assay: RAS-binding domain pull down assay; settings: 400 of compound, 24 hour treatment
Description: KRAS activation was determined using the rat sarcoma (RAS) activation assay kit (Millipore, 17-218) in accordance with the manufacturer's guidelines. Cell lysates were prepared using Mg2^+ Lysis/wash buffer (MLB). Samples were incubated with 10 μg RAS assay reagent and incubated for 45 minutes at 4° C. Agarose beads were pelleted by centrifugation and washed 3 times with MLB. Agarose beads were re-suspended in loading buffer. Samples were subjected to western blotting, as previously described, and the blots were probed using anti-K-Ras antibody (sc-30, Santa Cruz Biotechnology (SANTA)).

A549 NSCLC cells [5] = assay: Apoptosis analysis (Annexin V/PI flow cytometry); settings: A549 cells, 0, 5, 10, 20 and 40 μM for 24 h
Description: (§3) H2122, A549 and H358 NSCLC cells were plated in a 6-well plate with 2.0×10^5 cells/well and cultured overnight for attachment. After treatment with compound K017-0105 at 0, 5, 10, 20, 40 μM for 24 h, all cells were harvested by trypsinization and centrifuged at room temperature at 1000 rotations per minute (RPM) for 5 minutes. Cells were re-suspended in 100 μL 1× binding buffer and stained with Annexin V and propidium iodide (PI) staining solution for 15 minutes at room temperature in the dark. Apoptotic cells were quantitatively counted by a BD FACSAria III Flow Cytometer.
(§4) The ability of compound K017-0105 in inducing apoptosis in H2122, H358 and A549 NSCLC cells was examined. H2122, H358 and A549 NSCLC cells were treated with compound K017-0105 at different concentrations (0, 5, 10, 20 and 40 μM) for 24 h. These cells were stained with Annexin V-FITC/PI, and […] was detected by flow cytometry.

H2122 NSCLC cells [6] = assay: Apoptosis analysis (Annexin V/PI flow cytometry); settings: H2122 cells, 0, 5, 10, 20 and 40 μM for 24 h
Description: as §3, §4

H358 NSCLC cells [7] = assay: Apoptosis analysis (Annexin V/PI flow cytometry); settings: H358 cells, 0, 5, 10, 20 and 40 μM for 24 h
Description: as §3, §4

## O=C1Nc2ccccc2/C1=N\Nc1ccc(F)c(Cl)c1 [compound K017-0105]
A549 NSCLC cells [1]; Homo sapiens, 72 h treatment, mean±SEM
  IC50: 8.28 ± 2.64 µM
A549 NSCLC cells [1]; MTT, 72 h
  cytotoxicity: significant cytotoxicity
H2122 NSCLC cells [2]; Homo sapiens, NCI-H2122, 72 h treatment, mean±SEM
  IC50: 7.19 ± 1.6 µM
H2122 NSCLC cells [2]; MTT, 72 h
  cytotoxicity: significant cytotoxicity
H358 NSCLC cells [3]; Homo sapiens, NCI-H358, 72 h treatment, mean±SEM
  IC50: 8.18 ± 1.29 µM
H358 NSCLC cells [3]; MTT, 72 h
  cytotoxicity: significant cytotoxicity
[4]
  cytotoxicity: no cytotoxicity
p-CRAF, p-Akt and p-ERK; A549 NSCLC cells
  levels of p-CRAF, p-Akt and p-ERK: decreased
p-CRAF, p-Akt and p-ERK; H358 NSCLC cells
  levels of p-CRAF, p-Akt and p-ERK: decreased
p-CRAF, p-Akt and p-ERK; H2122 NSCLC cells
  levels of p-CRAF, p-Akt and p-ERK: decreased
GTP-bound KRAS; A549 NSCLC cells
  level of GTP-bound KRAS: inhibited
GTP-bound KRAS; H358 NSCLC cells
  level of GTP-bound KRAS: inhibited
GTP-bound KRAS; H2122 NSCLC cells
  level of GTP-bound KRAS: inhibited
A549 NSCLC cells [5]
  apoptosis: significantly induced apoptosis
H2122 NSCLC cells [6]
  apoptosis: significantly induced apoptosis
H358 NSCLC cells [7]
  apoptosis: significantly induced apoptosis
